The assay deals with CA1 neurons in the hippocampal slice. Put plainly: Low divalent-induced inward current in CA1 neurons in the hippocampal slice. It counts as cell-based. The note with it: co-perfusion. An excerpt: To verify this we tested several compounds with benzene rings on their outer edge such as DAPI and HSB. Both DAPI and HSB are di-cations but with amidine groups at both termini. […] We also examined the actions of NM on CA1 neurons in the hippocampal slice in order to confirm whether or not NM was capable of inhibiting and activating this current in CA1 neurons in situ. The diffusion barriers presented in the slice preparation preclude very rapid changes in divalent cation concentrations but prolonged solution changes can be used to activate TRPM7 currents in this preparation. Lowering concentrations of divalent cations induced a slowly activating inward current that was attenuated by the co-perfusion of NM (not shown).

From PMC3022637, “The modulation of TRPM7 currents by nafamostat mesilate depends directly upon extracellular concentrations of divalent cations” (Molecular Brain, 2010) come the findings set out here.

For the molecule `N=C(N)c1ccc2cc(OC(=O)c3ccc(N=C(N)N)cc3)ccc2c1` [NM, 6-amidino-2-naphthyl-4-guanidinobenzobate dimethanesulfonate], the “effect on slowly activating inward current induced by lowering divalent cations” value was “attenuated”.
